The values that follow come from US12612410B2 (CHILDREN'S HOSPITAL MEDICAL CENTER, priority 2020, dated 2026).

The term Kd denotes a measure of binding affinity in units of concentration. A low value points to higher affinity.

The test concerns the target T1, FLT3 ITD, D835V (Homo sapiens, UniProt P36888, D835V, form not given).
T1 construct: fused on or other part: DNA tag for qPCR detection (T7 phage fusion or DNA-tagged protein from HEK-293 cells)
T1 sequence (P36888 1-993 D835V): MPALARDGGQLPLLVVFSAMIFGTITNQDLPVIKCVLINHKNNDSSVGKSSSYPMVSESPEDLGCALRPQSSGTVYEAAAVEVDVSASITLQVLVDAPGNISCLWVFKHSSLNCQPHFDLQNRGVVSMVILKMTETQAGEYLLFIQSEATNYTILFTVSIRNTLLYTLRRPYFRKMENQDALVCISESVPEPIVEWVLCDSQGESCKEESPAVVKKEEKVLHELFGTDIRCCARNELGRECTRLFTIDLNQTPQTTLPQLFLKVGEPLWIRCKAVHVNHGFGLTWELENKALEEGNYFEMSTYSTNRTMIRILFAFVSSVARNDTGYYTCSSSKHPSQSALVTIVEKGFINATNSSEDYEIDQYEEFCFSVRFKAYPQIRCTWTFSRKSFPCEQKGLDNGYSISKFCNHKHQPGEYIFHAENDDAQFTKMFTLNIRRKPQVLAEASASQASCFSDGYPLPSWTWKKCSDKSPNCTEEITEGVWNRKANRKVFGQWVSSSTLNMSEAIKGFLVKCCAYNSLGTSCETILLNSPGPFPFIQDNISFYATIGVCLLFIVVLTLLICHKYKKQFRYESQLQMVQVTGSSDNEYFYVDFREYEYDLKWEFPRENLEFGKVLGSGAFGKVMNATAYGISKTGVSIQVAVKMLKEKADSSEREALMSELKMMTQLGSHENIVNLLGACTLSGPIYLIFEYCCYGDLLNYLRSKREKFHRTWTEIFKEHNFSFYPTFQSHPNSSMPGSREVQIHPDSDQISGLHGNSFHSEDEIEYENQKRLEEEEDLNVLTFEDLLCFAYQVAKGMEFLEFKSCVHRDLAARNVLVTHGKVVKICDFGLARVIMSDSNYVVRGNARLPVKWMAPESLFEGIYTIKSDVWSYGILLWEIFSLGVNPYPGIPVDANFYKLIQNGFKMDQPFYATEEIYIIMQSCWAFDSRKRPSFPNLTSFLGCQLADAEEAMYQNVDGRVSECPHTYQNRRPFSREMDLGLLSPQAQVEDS
The experiment in a line: DiscoverX KINOMEscan competition binding, FLT3 ITD, D835V. From the text: Kinase binding data were obtained for various exemplary compounds prepared according to Examples 1-24 using the DiscoverX KINOMVIEscan® active site-directed competition binding site-directed assay protocol described below. […] As a result, the data report thermodynamic interaction affinities (Kd values), rather than IC50 values that are dependent on ATP concentrations. The assay uses a DNA-tagged version of the protein kinase, and an immobilized ligand bound to a solid support. Compounds that directly or indirectly prevent kinase binding to the immobilized ligand reduce the amount of kinase captured on the solid support, which is detected using an ultra-sensitive qPCR method. Affinity constants reported from the assay have been reported to be independent of the immobilized ligand used that is coupled to the solid support (See supplemental information in Fabian, M. A. et. al., (2005) Nat. Biotechnol. 23, 329-336; Wodicka, L. M. et. al., (2010) Chem. Biol. 17, 1241-1249.)
Kinase-tagged T7 phage strains were prepared in an E. coli host derived from the BL21 strain. E. coli were grown to log-phase and infected with T7 phage and incubated with shaking at 32° C. until lysis. The lysates were centrifuged and filtered to remove cell debris. The remaining kinases were produced in HEK-293 cells and subsequently tagged with DNA for qPCR detection. Streptavidin-coated magnetic beads were treated with biotinylated small molecule ligands for 30 minutes at room temperature to generate affinity resins for kinase assays. The liganded beads were blocked with excess biotin and washed with blocking buffer (SeaBlock (Pierce), 1% BSA, 0.05% Tween 20, 1 mM DTT) to remove unbound ligand and to reduce non-specific binding. Binding reactions were assembled by combining kinases, liganded affinity beads, and test compounds in 1× binding buffer (20% SeaBlock, 0.17×PBS, 0.05% Tween 20, 6 mM DTT). Test compounds were prepared as 111× stocks in 100% DMSO. Kds were determined using an 11-point 3-fold compound dilution series with three DMSO control points. All compounds for Kd measurements are distributed by acoustic transfer (non-contact dispensing) in 100% DMSO. The compounds were then diluted directly into the assays such that the final concentration of DMSO was 0.9%. All reactions were performed in polypropylene 384-well plates. Each was a final volume of 0.02 mL. The assay plates were incubated at room temperature with shaking for 1 hour and the affinity beads were washed with wash buffer (1×PBS, 0.05% Tween 20). The beads were then re-suspended in elution buffer (1×PBS, 0.05% Tween 20, 0.5 μM nonbiotinylated affinity ligand) and incubated at room temperature with shaking for 30 minutes. The kinase concentration in the eluates was measured by qPCR.
Binding constants (Kds) were calculated with a standard dose-response curve using the Hill equation. The Hill Slope was set to −1. Curves were fitted using a non-linear least square fit with the Levenberg-Marquardt algorithm.

`CC1(c2cn3c(-c4cccc(N[C@H]5CNC[C@@H]5F)n4)cnc3cn2)CC1` [Compound 1, N-((3S,4S)-4-fluoropyrrolidin-3-yl)-6-(6-(1-methylcyclopropyl)imidazo[1,2-a]pyrazin-3-yl)pyridin-2-amine] came in with a Kd of 3 pM. In other words, the picomolar range. Consider `CC1(c2cn3c(-c4cccc(N[C@@H]5CCNC5)n4)cnc3cn2)CC1` [Compound 3, (R)-6-(6-(1-methylcyclopropyl)imidazo[1,2-a]pyrazin-3-yl)-N-(pyrrolidin-3-yl)pyridin-2-amine], for which the affinity, expressed as Kd, was 4 pM.

As for `CC1(c2cn3c(-c4cccc(N[C@H]5CNCC56CC6)n4)cnc3cn2)CC1` [Compound 5, (R)-N-(6-(6-(1-methylcyclopropyl)imidazo[1,2-a]pyrazin-3-yl)pyridin-2-yl)-5-azaspiro[2.4]heptan-7-amine], the affinity, expressed as Kd, was 5 pM. With `FC(F)(F)C1(c2cn3c(-c4cccc(N[C@@H]5CCNC5)n4)cnc3cn2)CC1` [Compound 10, (R)-N-(pyrrolidin-3-yl)-6-(6-(1-(trifluoromethyl)cyclopropyl)imidazo[1,2-a]pyrazin-3-yl)pyridin-2-amine], the Kd was 11 pM. Consider `FC(F)c1cn2c(-c3cccc(N[C@H]4CNC[C@@H]4F)n3)cnc2cn1` [Compound 16, 6-(6-(difluoromethyl)imidazo[1,2-a]pyrazin-3-yl)-N-((3S,4S)-4-fluoropyrrolidin-3-yl)pyridin-2-amine], for which the Kd came to 6 pM. Turning to `FC(F)c1cn2c(-c3cccc(N[C@H]4CNCC[C@@H]4F)n3)cnc2cn1` [Compound 25, 6-(6-(difluoromethyl)imidazo[1,2-a]pyrazin-3-yl)-N-((3S,4S)-4-fluoropiperidin-3-yl)pyridin-2-amine], binding was put at a Kd of 9 pM. To `CC(C)(O)c1cn2c(-c3cccc(N[C@@H]4CCCNC4)n3)cnc2cn1` [Compound 30, (R)-2-(3-(6-(piperidin-3-ylamino)pyridin-2-yl)imidazo[1,2-a]pyrazin-6-yl)propan-2-ol] belongs 140 pM. As for `CC(C)(O)c1cn2c(-c3cccc(N[C@H]4CNCC[C@@H]4F)n3)cnc2cn1` [Compound 31, 2-(3-(6-(((3S,4S)-4-fluoropiperidin-3-yl)amino)pyridin-2-yl)imidazo[1,2-a]pyrazin-6-yl)propan-2-ol], the equilibrium dissociation constant (Kd) worked out at 44 pM. `FC(F)(F)COc1cn2c(-c3cccc(N[C@@H]4CCNC4)n3)cnc2cn1` [Compound 38, (R)-N-(pyrrolidin-3-yl)-6-(6-(2,2,2-trifluoroethoxy)imidazo[1,2-a]pyrazin-3-yl)pyridin-2-amine] had a Kd of 26 pM. Against the preceding compound, the Kd is about 1.7-fold lower. The value for `F[C@H]1CNC[C@@H]1Nc1cccc(-c2cnc3cnc(C4CC4)cn23)n1` [Compound 50, 6-(6-cyclopropylimidazo[1,2-a]pyrazin-3-yl)-N-((3S,4S)-4-fluoropyrrolidin-3-yl)pyridin-2-amine] was 3 pM. On to `Cn1cc(-c2cn3c(-c4cccc(N[C@H]5CNC[C@@H]5F)n4)cnc3cn2)cn1` [Compound 52, N-((3S,4S)-4-fluoropyrrolidin-3-yl)-6-(6-(1-methyl-1H-pyrazol-4-yl)imidazo[1,2-a]pyrazin-3-yl)pyridin-2-amine], for which the Kd amounted to 3 pM. In other words, the picomolar range.
